Assay results as given in US20210070723A1, “CRYSTAL FORM OF SESQUITERPENE DERIVATIVE, PREPARATION METHOD THEREFOR AND USE THEREOF” (Nankai University, priority 2017, published 2021).
Where two headings read alike, the source gives them in different places. Each block holds one molecule with its values, some of them ahead of it.

Key:
[1] = test system: IPF model (bleomycin); assay: Animal drug effect in the bleomycin-induced IPF model, intragastric administration; type: in vivo, C57BL/6 mice; settings: for overall effect on idiopathic pulmonary fibrosis: bleomycin mouse model, vs Pirfenidone and Nintedanib
Experimental: Trial mice were C57BL/6 mice, 35 mice in total, 7 mice in each group, including a saline group, a bleomycin group, a Nintedanib group (100 mpk), a Pirfenidone group (200 mpk) and a group (100 mpk) administrating the crystal form A of the compound of structural formula (I). On day 0, bleomycin (2U/kg) was injected using a trachea to establish an IPF model, 0-7 days were inflammation periods of mice, and 7-14 days were fibrosis lasting progressive periods of mice. Administration was conducted on the day 7, materials were taken on the day 14, the lung functions of mice were measured after mice were narcotized, then the left lungs were taken to make pathological sections, and the right lungs were used to measure hydroxyproline.

[2] = Hygroscopicity: open weighing bottles in a constant temperature and humidity incubator, moisture absorption rate; type: physicochemical; settings: for hygroscopicity (in words): compared with the amorphous compound of structural formula (I); for Moisture absorption rates after 1 month / Moisture absorption rates after 2 months / Moisture absorption rates after 2 weeks: 25° C., 75% humidity
Experimental: The crystal form A products prepared in example 1, example 2 and example 3 were taken and placed in weighing bottles for precision weighing. The caps of the bottles were opened, the bottles were put on an upper part of a drier and placed in a constant temperature and humidity incubator with 25° C. and 75% humidity, three parts were subjected to parallel operation, and then taken and weighed in two weeks, one month and two months respectively, and the compound amorphous powder of structural formula (I) was used as comparative example 1. Moisture absorption rate=(weight after moisture absorption - weight before moisture absorption)/weight before moisture absorption×100%.

[3] = Absorption experiment (pharmacokinetics and bioavailability) in rats; type: in vivo; settings: Sprague Dawley, plasma, rat; for bioavailability: oral, 150 mpk
Experimental: Trial rats were Sprague Dawley rats, 7 rats in total, 1 rat was used as blank control, and blank plasma was taken to be used. 3 rats were administrated via tail intravenous injection (30 mpk), and 3 rats were orally and intragastrically administrated (150 mpk). According to the set time schedule, blood was collected from orbital vein to put in a blood collection vessel containing heparin sodium, centrifuged for 10min at 4° C. and 3500rpm, the supernatant of plasma was taken and put into EP tube, and the content of the compound of structural formula (I) in blood was detected. Bioavailability was calculated according to the following formula: bioavailability F %=(AUCpo/AUCIV)×(dose IV/dose po)×100%; Time schedule was set, as shown in Table 2. AUCpo is an area under the drug concentration-time curve under administrating oral drug, AUCIV is an area under the drug concentration-time curve under intravenous injecting drug, dose IV is the dose of the injected drug, the dose po is the dose of the oral drug, Tmax (h) is the time to reach the blood peak, T1/2 (h) is the half-life of blood concentration, and Cmax (ng/mL) is the drug peak concentration of the drug-time curve.

[4] = 30 mg/kg, intravenous injection (30 mpk)
[5] = 150 mg/kg, oral administration (150 mpk)

hygroscopicity (in words) [2]: obviously reduced
hygroscopicity (in words) ([2]; listed as crystal form A of the compound (I)): basically non-hygroscopic
AUC [3, 4]: 40.6 µg·h/mL
Cmax [3, 4]: 21.3 µg/mL
Tmax [3, 4]: 0.11 h
half-life [3, 4]: 1.35 h
AUC [3, 5]: 174 µg·h/mL
Cmax [3, 5]: 56.3 µg/mL
Tmax [3, 5]: 0.67 h
half-life [3, 5]: 1.91 h
bioavailability ([3]; po 150 mpk vs iv 30 mpk, read-out: bioavailability): 85.8%
Structure (SMILES): CN(C)C[C@@H]1C(=O)O[C@@H]2C[C@@]3(C)CC[C@@H](O)[C@]4(CO4)[C@@H]3C[C@H]12.O=C(O)CCC(=O)O
pathological sections (area of pulmonary fibrosis focus, alveolar structure) ([1]; 100 mpk, administration from day 7, left lung taken on day 14): can obviously reduce the area of pulmonary fibrosis focus and normalize the alveolar structure
forced vital capacity (FVC) ([1]; 100 mpk, day 14): can significantly improve the FVC of mice
pulmonary fibrosis area (fibrotic percentage) ([1]; 100 mpk, day 14, vs Nintedanib (100 mpk) and Pirfenidone (200 mpk)): superior to the positive drugs
expression of hydroxyproline (content of collagen in the lungs) ([1]; 100 mpk, right lung, day 14): can significantly reduce the content of collagen in the lungs
overall effect on idiopathic pulmonary fibrosis [1]: can significantly alleviate idiopathic pulmonary fibrosis

Moisture absorption rates after 1 month [2]: 2.7%
Moisture absorption rates after 2 months [2]: 3.2%
Moisture absorption rates after 2 weeks [2]: 1.4%
bioavailability ([3]; crystal form A prepared by the methods in example 1 and example 3, read-out: bioavailabilities): > 85.5%
Structure (SMILES): CN(C)C[C@@H]1C(=O)O[C@@H]2C[C@@]3(C)CC[C@@H](O)[C@]4(CO4)[C@@H]3C[C@H]12.O=C(O)CCC(=O)O [Example 1]
overall effect on idiopathic pulmonary fibrosis [1]: can significantly alleviate idiopathic pulmonary fibrosis

Moisture absorption rates after 1 month [2]: 3.8%
Moisture absorption rates after 2 months [2]: 3.1%
Moisture absorption rates after 2 weeks [2]: 1.9%
Structure (SMILES): CN(C)C[C@@H]1C(=O)O[C@@H]2C[C@@]3(C)CC[C@@H](O)[C@]4(CO4)[C@@H]3C[C@H]12.O=C(O)CCC(=O)O [Example 2]

Moisture absorption rates after 1 month [2]: 2.2%
Moisture absorption rates after 2 months [2]: 2.8%
Moisture absorption rates after 2 weeks [2]: 1.6%
Structure (SMILES): CN(C)C[C@@H]1C(=O)O[C@@H]2C[C@@]3(C)CC[C@@H](O)[C@]4(CO4)[C@@H]3C[C@H]12.O=C(O)CCC(=O)O [Example 3]
overall effect on idiopathic pulmonary fibrosis [1]: can significantly alleviate idiopathic pulmonary fibrosis

Moisture absorption rates after 1 month [2]: 12.7%
Moisture absorption rates after 2 months [2]: 22.6%
Moisture absorption rates after 2 weeks [2]: 8.1%
Structure (SMILES): CN(C)C[C@@H]1C(=O)O[C@@H]2C[C@@]3(C)CC[C@@H](O)[C@]4(CO4)[C@@H]3C[C@H]12.O=C(O)CCC(=O)O [compound 1]
